Data from US10851082B2, “Substituted aromatic n-heterocyclic compounds as inhibitors of mitogen-activated protein kinase interacting kinase 1 (MNK1) and 2 (MNK2)” (Northwestern University, priority 2015, dated 2020).
Like-named read-outs stand apart in the source and are kept apart here.

Experiments:
Mnk1 [1] = target: T1, Mnk1 (Homo sapiens (Human), UniProt Q9BUB5); test: Mnk1 kinase inhibition, ADP-Glo ADP monitoring assay; format: biochemical
Target sequence in this assay (Q9BUB5 whole entry): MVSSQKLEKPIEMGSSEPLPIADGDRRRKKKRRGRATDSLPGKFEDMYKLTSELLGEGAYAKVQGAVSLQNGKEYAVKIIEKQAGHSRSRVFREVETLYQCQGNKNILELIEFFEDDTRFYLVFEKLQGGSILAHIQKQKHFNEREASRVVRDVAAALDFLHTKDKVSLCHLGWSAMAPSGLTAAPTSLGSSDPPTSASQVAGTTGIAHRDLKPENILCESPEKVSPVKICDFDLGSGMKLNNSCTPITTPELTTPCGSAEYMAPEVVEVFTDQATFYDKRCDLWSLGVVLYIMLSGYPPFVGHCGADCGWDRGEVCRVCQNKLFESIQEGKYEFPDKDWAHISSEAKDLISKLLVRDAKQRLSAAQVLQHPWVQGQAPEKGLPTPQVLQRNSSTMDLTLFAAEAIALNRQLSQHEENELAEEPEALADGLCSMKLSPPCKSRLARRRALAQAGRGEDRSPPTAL
Protocol: (§1) The synthesized compounds then were tested for inhibition of the kinase activity (IC50) of Mnk1 and/or Mnk2 using the ADP monitoring assay for kinases described in Zegzouti, H.; Zdanovskaia, M.; Hsiao, K.; Goueli, S. A., ADP-Glo: A Bioluminescent and homogeneous ADP monitoring assay for kinases.

Mnk2 = Mnk2 (Homo sapiens (Human), UniProt Q9HBH9); test: Mnk2 kinase inhibition, ADP-Glo ADP monitoring assay; format: biochemical; settings: ADP-Glo kinase assay
Protocol: as §1

Mnk1 [2] = test: Cellular inhibition of Mnk1, flow cytometry of phospho-eIF-4E (Ser209), U937 cells; format: cell-based
Protocol: (§2) To evaluate inhibition of Mnk1 in cells, we utilized a flow cytometry-based assay based on activation of eIF-4E, the downstream target of Mnk1. The assay utilizes flow cytometry to quantitatively measure the amount of eIF-4E that is phosphorylated at residue Ser209 in cell lysate from U937 or MV4-11 cell lines. Cells grown in the presence of serum were treated with vehicle or test compounds across a range of concentrations. Levels of phospho-eIF-4E were measured and IC50 values were determined by logistic regression to quantify the potency of each compound.

Mnk1 [3] = test: Cellular inhibition of Mnk1, flow cytometry of phospho-eIF-4E (Ser209), MV4-11 cells; format: cell-based
Protocol: as §2

U937 cells = test: Cell viability assay (CellTiter-Glo), U937; format: cell-based; settings: Homo sapiens
Protocol: (§3) To measure the ability of the new Mnk1/2 inhibitors to kill cancer cells in vitro, U937 or MV4-11 cells were incubated with different concentrations of test compounds and analyzed for apoptosis and cell viability at 5 and 24 hours post-treatment.

MV4-11 cells = test: Cell viability assay (CellTiter-Glo), MV4-11; format: cell-based; settings: Homo sapiens
Protocol: as §3

Mnk1 [4] = target: T1, Mnk1; test: Cellular inhibition of Mnk1, flow cytometry of phospho-eIF-4E (Ser209), U937 cells; format: cell-based; settings: phospho-eIF-4E Ser209, flow cytometry, read-out: U937 pEIF4E IC50
Target sequence in this assay (Q9BUB5 whole entry, looked up): as the sequence (Q9BUB5 whole entry) above
Protocol: as §2

Mnk1 [5] = target: T1, Mnk1; test: Cellular inhibition of Mnk1, flow cytometry of phospho-eIF-4E (Ser209), MV4-11 cells; format: cell-based; settings: phospho-eIF-4E Ser209, flow cytometry, read-out: MV4-11 pEIF4E IC50
Target sequence in this assay (Q9BUB5 whole entry, looked up): as the sequence (Q9BUB5 whole entry) above
Protocol: as §2

[6] = read-out: U937 pEIF4E IC50, phospho-eIF-4E Ser209, flow cytometry
[7] = read-out: MV4-11 pEIF4E IC50, phospho-eIF-4E Ser209, flow cytometry
[8] = U-937, U937 cells, ATP levels with CellTiter-Glo, read-out: U937 viability EC50
[9] = MV4-11 cells, ATP levels with CellTiter-Glo, read-out: MV4-11 viability EC50
[10] = U-937, read-out: U937 viability EC50
[11] = MV4-11, read-out: MV4-11 viability EC50
[12] = read-out: Mnk1 inhibition IC50 (+,++,+++)
[13] = read-out: Mnk2 inhibition IC50 (+,++,+++)
[14] = read-out: U937 pEIF4E cellular flow IC50 (+,++,+++), flow cytometry
[15] = read-out: MV4-11 pEIF4E cellular flow IC50 (+,++,+++), flow cytometry

Mnk2, sequence (Q9HBH9 whole entry): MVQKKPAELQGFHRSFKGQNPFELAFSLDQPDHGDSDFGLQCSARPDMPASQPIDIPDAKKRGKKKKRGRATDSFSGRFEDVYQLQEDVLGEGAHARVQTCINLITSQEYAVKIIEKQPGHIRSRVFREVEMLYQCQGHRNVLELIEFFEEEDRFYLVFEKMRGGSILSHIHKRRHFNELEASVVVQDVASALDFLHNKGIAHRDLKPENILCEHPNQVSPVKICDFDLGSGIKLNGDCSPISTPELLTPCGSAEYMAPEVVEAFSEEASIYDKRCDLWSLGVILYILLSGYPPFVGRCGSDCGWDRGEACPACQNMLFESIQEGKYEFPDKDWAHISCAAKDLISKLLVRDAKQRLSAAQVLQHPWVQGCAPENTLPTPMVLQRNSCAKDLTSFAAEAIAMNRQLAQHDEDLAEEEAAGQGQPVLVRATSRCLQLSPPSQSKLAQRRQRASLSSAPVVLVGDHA

| Structure (SMILES) | IC50 (Mnk1 [1]; read-out: Mnk1 IC50) [µM] | IC50 (Mnk2; read-out: Mnk2 IC50) [µM] | IC50 (Mnk1 [2]; [6]) [µM] | IC50 (Mnk1 [3]; [7]) [µM] | EC50 (U937 cells; [8]) [µM] | EC50 (MV4-11 cells; [9]) [µM] | also measured |
| --- | --- | --- | --- | --- | --- | --- | --- |
| O[C@H]1CC[C@H](Nc2nccc(-n3cnc4ccccc43)n2)C1 [NUCC-0176163] | 0.2 | 0.041 | – | – | – | – | IC50 (Mnk1 [4]): 0.075 µM; IC50 (Mnk1 [5]): 0.074 µM; EC50 (U937 cells; [10]): 8.1 µM; EC50 (MV4-11 cells; [11]): 0.22 µM |
| c1ccc2c(c1)ncn2-c1ccnc(NC2CCOC2)n1 (stereo not shown) [NUCC-0125583] | – | 0.0095 | – | – | > 10 | 0.62 | – |
| c1ccc2c(c1)ncn2-c1ccnc(Nc2ccncc2)n1 [NUCC-0125585] | 0.14 | – | 0.051 | 0.04 | 10 | 0.31 | – |
| c1ccc2c(c1)ncn2-c1ccnc(NC2CCNC2)n1 (stereo not shown) [NUCC-0125592] | 0.15 | 0.04 | 1.1 | 0.069 | > 10 | 0.08 | – |
| c1cncc(CCNc2ccnc(-n3cnc4ccccc43)n2)c1 [NUCC-0176341] | 0.21 | 0.026 | – | – | – | – | IC50 (Mnk1 [4]): 0.042 µM; IC50 (Mnk1 [5]): 0.035 µM; EC50 (U937 cells; [10]): 13 µM; EC50 (MV4-11 cells; [11]): 0.19 µM |
| O[C@H]1CC[C@@H](Nc2nccc(-n3cnc4ccccc43)n2)C1 [NUCC-0176164] | 0.1 | 0.026 | – | – | – | – | IC50 (Mnk1 [4]): 0.062 µM; IC50 (Mnk1 [5]): 0.036 µM; EC50 (U937 cells; [10]): > 10 µM; EC50 (MV4-11 cells; [11]): 0.18 µM |
| Clc1cnc(NCCc2ccncc2)nc1-n1cnc2ccccc21 [NUCC-0175697] | – | – | – | – | 7 | 0.35 | – |
| N#Cc1cnc(OC2CC(N)C2)nc1-n1cnc2ccccc21 (stereo not shown) [NUCC-0200907, 2-(3-aminocyclobutoxy)-4-(1H-benzo[d]imidazol-1-yl)pyrimidine-5-carbonitrile] | – | – | – | – | – | – | IC50 (Mnk1 [1]; [12]): < 1 µM; IC50 (Mnk2; [13]): < 1 µM; IC50 (Mnk1 [2]; [14]): < 1 µM; IC50 (Mnk1 [3]; [15]): < 1 µM |
| O=C1CCCN1CCOc1ncc(Cl)c(-n2cnc3ccccc32)n1 [NUCC-0200811] | – | – | – | – | – | – | IC50 (Mnk1 [1]; [12]): < 1 µM; IC50 (Mnk2; [13]): < 1 µM; IC50 (Mnk1 [2]; [14]): < 1 µM; IC50 (Mnk1 [3]; [15]): < 1 µM |
| CN(C)CCNc1nccc(-c2cnn(C)c2)n1 [NUCC-0060898] | 5 | – | 0.042 | 0.035 | 13 | 0.19 | – |
| CCn1cncc1CNc1nccc(-c2cnn(-c3cccc(OC)c3)c2)n1 [NUCC-0054136] | 10 | – | 0.14 | 0.1 | 10 | 4.5 | – |
| O[C@@H]1CC[C@H](Nc2nccc(-n3cnc4ccccc43)n2)C1 [NUCC-0176144] | 0.15 | 0.028 | – | – | – | – | IC50 (Mnk1 [4]): 0.078 µM; IC50 (Mnk1 [5]): 0.078 µM; EC50 (U937 cells; [10]): 5.7 µM; EC50 (MV4-11 cells; [11]): 0.17 µM |
| N#Cc1cnc(OC2CCOC2)nc1-n1cnc2ccccc21 (stereo not shown) [NUCC-0200792] | – | – | – | – | – | – | IC50 (Mnk1 [1]; [12]): < 1 µM; IC50 (Mnk2; [13]): < 1 µM; IC50 (Mnk1 [2]; [14]): < 1 µM; IC50 (Mnk1 [3]; [15]): < 1 µM |
| c1ccc2c(c1)ccn2-c1ccnc(NCCc2ccncc2)n1 [NUCC-0060954] | – | – | – | – | 2.6 | 0.41 | – |
| Clc1cccc(-n2cc(-c3ccnc(NCCc4c[nH]cn4)n3)cn2)c1 [NUCC-0054135] | 6 | – | 0.081 | 0.066 | 3.4 | 0.24 | – |
| c1ccc2c(c1)ncn2-c1ccnc(NCCc2ccncc2)n1 [NUCC-0060957] | – | – | – | – | 5.3 | 0.12 | – |
| N#Cc1cnc(OCCc2ccncc2)nc1-n1cnc2ccccc21 [NUCC-0200786] | – | – | – | – | – | – | IC50 (Mnk1 [1]; [12]): < 1 µM; IC50 (Mnk2; [13]): < 1 µM; IC50 (Mnk1 [2]; [14]): < 1 µM; IC50 (Mnk1 [3]; [15]): < 1 µM |
| Clc1cnc(OC2CCCOC2)nc1-n1cnc2ccccc21 (stereo not shown) [NUCC-0200803] | – | – | – | – | – | – | IC50 (Mnk1 [1]; [12]): < 1 µM; IC50 (Mnk2; [13]): < 1 µM; IC50 (Mnk1 [2]; [14]): < 1 µM; IC50 (Mnk1 [3]; [15]): < 1 µM |
| N#Cc1cnc(OCCc2ccccn2)nc1-n1cnc2ccccc21 [NUCC-0200790] | – | – | – | – | – | – | IC50 (Mnk1 [1]; [12]): < 1 µM; IC50 (Mnk2; [13]): < 1 µM; IC50 (Mnk1 [2]; [14]): < 1 µM; IC50 (Mnk1 [3]; [15]): < 1 µM |

More lines, main results first:

| IC50 (Mnk1 [1]; read-out: Mnk1 IC50) [µM] | IC50 (Mnk2; read-out: Mnk2 IC50) [µM] | IC50 (Mnk1 [2]; [6]) [µM] | IC50 (Mnk1 [3]; [7]) [µM] | EC50 (U937 cells; [8]) [µM] | EC50 (MV4-11 cells; [9]) [µM] | Structure (SMILES) | also measured |
| --- | --- | --- | --- | --- | --- | --- | --- |
| 0.33 | 0.049 | 0.081 | 0.066 | 3.4 | 0.24 | Fc1cnc(NCCc2ccncc2)nc1-n1cnc2ccccc21 [NUCC-0176281] | – |
| – | 0.046 | – | – | > 10 | 0.44 | c1ccc2c(c1)ncn2-c1ccnc(N[C@H]2CCOC2)n1 [NUCC-0176148] | – |
| 0.093 | 0.028 | 0.14 | 0.1 | 10 | 4.5 | FC(F)(F)c1cnc(NCCc2ccncc2)nc1-n1cnc2ccccc21 [NUCC-0176282, 4-(1H-benzo[d]imidazol-1-yl)-N-(2-(pyridin-4-yl)ethyl)-5-(trifluoromethyl)pyrimidin-2-amine] | – |
| 0.53 | 0.072 | 0.63 | 0.37 | > 10 | 1 | Clc1cnc(NCCc2cnc[nH]2)nc1-n1cnc2ccccc21 [NUCC-0175695] | – |
| – | – | – | – | 2.6 | 0.41 | N#Cc1cnc(NCCc2ccncc2)nc1-n1cnc2ccccc21 [NUCC-0176343] | – |
